The results in this text go back to patent publication US20130196986A1 (priority 2010, published 2013).

The structures appear in SMILES notation.

For the test, the target named is T1, P2X7 receptor (Homo sapiens, UniProt Q99572).
T1 construct: stably expressing the full length P2X7 receptor; expressed in transfected cells
T1 sequence (Q99572 1-595): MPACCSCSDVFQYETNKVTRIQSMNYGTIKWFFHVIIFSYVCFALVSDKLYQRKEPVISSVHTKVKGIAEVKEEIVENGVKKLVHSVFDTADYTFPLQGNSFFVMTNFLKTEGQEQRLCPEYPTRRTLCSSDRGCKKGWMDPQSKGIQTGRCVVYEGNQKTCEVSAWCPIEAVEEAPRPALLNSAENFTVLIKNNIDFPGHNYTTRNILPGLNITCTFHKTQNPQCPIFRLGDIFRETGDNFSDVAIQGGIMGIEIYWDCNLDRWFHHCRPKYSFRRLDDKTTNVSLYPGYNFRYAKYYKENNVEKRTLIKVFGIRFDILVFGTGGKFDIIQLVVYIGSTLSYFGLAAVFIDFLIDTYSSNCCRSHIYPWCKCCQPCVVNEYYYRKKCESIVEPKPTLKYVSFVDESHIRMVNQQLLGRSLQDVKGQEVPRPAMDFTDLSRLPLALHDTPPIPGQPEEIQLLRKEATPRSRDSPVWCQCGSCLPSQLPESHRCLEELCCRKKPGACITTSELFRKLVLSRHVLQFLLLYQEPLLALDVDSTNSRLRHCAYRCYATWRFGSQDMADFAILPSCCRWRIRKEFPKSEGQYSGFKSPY
In words: Ca++ flux assay (FLIPR) in P2X7-HEK-293 cell line stably expressing the full length P2X7 receptor, Bz-ATP activation. In kind it is cell-based. Particulars: P2X7-HEK-293 cells; agonist Bz-ATP; fluorescence as total area over 90 seconds; read-out: P2X7 Ca Flux hu IC50. Put shortly: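 HEK-293 cells stably expressing full-length P2X7 were loaded with Ca++-sensitive dye for 1 h, with compound added during loading. Cells were stimulated with Bz-ATP on FLIPR. Fluorescence was integrated as total area over 90 s, and IC50 was taken as 50% inhibition of the maximal Ca++ response.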
Take `O=c1c2nnc(SCc3ccccc3)n2ccn1-c1cccc(C(F)(F)F)c1F` [Compound 59, 3-(benzylthio)-7-(2-fluoro-3-(trifluoromethyl)phenyl)-[1,2,4]triazolo[4,3-a]pyrazin-8(7H)-one]: the IC50 amounted to 457 nM. Under `O=c1c2nnc(SCc3cc(Cl)cc(Cl)c3)n2ccn1-c1cccc(C(F)(F)F)c1Cl` [Compound 60, 7-(2-chloro-3-(trifluorornethyl)phenyl)-3-(3,5-dichlorobenzylthio)-[1,2,4]triazolo[4,3-a]pyrazin-8(7H)-one] stands 91.4 nM; under `O=c1c2nnc(SCc3ccccc3)n2ccn1-c1cccc(C(F)(F)F)c1Cl` [Compound 61, 3-(benzylthio)-7-(2-chloro-3-(trifluoromethyl)phenyl)-[1,2,4]triazolo[4,3-a]pyrazin-8(7H)-one], 44.9 nM; under `Cc1c(-n2ccn3c(SC(C)c4ccccc4)nnc3c2=O)cccc1C(F)(F)F` (centres unmarked) [Compound 62, 7-(2-methyl-3-(trifluoromethyl)phenyl)-3-(1-phenylethylthio)-[1,2,4]triazolo[4,3-a]pyrazin-8(7H)-one], 57.5 nM. As for `Cc1c(Cl)cccc1-n1ccn2c(SCc3cccc(Cl)c3F)nnc2c1=O` [Compound 63, 3-(3-chloro-2-fluorobenzylthio)-7-(3-chloro-2-methylphenyl)-[1,2,4]triazolo[4,3-a]pyrazin-8(7H)-one], the concentration for half-maximal inhibition (IC50) is 2540 nM.

Consider `Cc1c(Cl)cccc1-n1ccn2c(SCc3cc(Cl)ccc3F)nnc2c1=O` [Compound 64, 3-(5-chloro-2-fluorobenzylthio)-7-(3-chloro-2-methylphenyl)-[1,2,4]triazolo[4,3-a]pyrazin-8(7H)-one], for which the IC50 worked out at 755 nM. With `O=c1c2nnc(SCc3ccccc3)n2ccn1-c1cccc(F)c1Cl` [Compound 65, 3-(benzylthio)-7-(2-chloro-3-fluorophenyl)-[1,2,4]triazolo[4,3-a]pyrazin-8(7H)-one], the IC50 is 189 nM. With `Cc1c(Cl)cccc1-n1ccn2c(SCc3cccc(Cl)c3Cl)nnc2c1=O` [Compound 66, 7-(3-chloro-2-methylphenyl)-3-(2,3-dichlorobenzylthio)-[1,2,4]triazolo[4,3-a]pyrazin-8(7H)-one], the half-inhibitory concentration (IC50) was determined as 324 nM. On to `O=c1c2nnc(SCc3cc(Cl)cc(Cl)c3)n2ccn1-c1cccc(Cl)c1Cl` [Compound 67, 3-(3,5-dichlorobenzylthio)-7-(2,3-dichlorophenyl)-[1,2,4]triazolo[4,3-a]pyrazin-8(7H)-one], for which the half-inhibitory concentration (IC50) stood at 168 nM. As for `Cc1c(Cl)cccc1-n1ccn2c(SCc3c(F)cccc3C(F)(F)F)nnc2c1=O` [Compound 68, 7-(3-chloro-2-methylphenyl)-3-(2-fluoro-6-(trifluoromethyl)benzylthio)-[1,2,4]triazolo[4,3-a]pyrazin-8(7H)-one], the figure is 475 nM. Under `Cc1c(-n2ccn3c(SCc4cc(Cl)cc(Cl)c4)nnc3c2=O)cccc1C(F)(F)F` [Compound 69, 3-(3,5-dichlorobenzylthio)-7-(2-methyl-3-(trifluoromethyl)phenyl)-[1,2,4]triazolo[4,3-a]pyrazin-8(7H)-one] stands 188 nM.

In the case of `Cc1c(Cl)cccc1-n1ccn2c(SCc3ccccc3OC(F)(F)F)nnc2c1=O` [Compound 70, 7-(3-chloro-2-methylphenyl)-3-(2-(trifluoromethoxy)benzylthio)-[1,2,4]triazolo[4,3-a]pyrazin-8(7H)-one], the IC50 came to 112 nM.

With `Cc1c(Cl)cccc1-n1ccn2c(SCc3ccccc3Br)nnc2c1=O` [Compound 71, 3-(2-bromobenzylthio)-7-(3-chloro-2-methylphenyl)-[1,2,4]triazolo[4,3-a]pyrazin-8(7H)-one], the half-inhibitory concentration (IC50) stood at 142 nM. Under `Cc1c(Cl)cccc1-n1ccn2c(SCc3cc(Cl)ccc3Cl)nnc2c1=O` [Compound 72, 7-(3-chloro-2-methylphenyl)-3-(2,5-dichlorobenzylthio)-[1,2,4]triazolo[4,3-a]pyrazin-8(7H)-one] stands 3150 nM; under `Cc1cccc(CSc2nnc3c(=O)n(-c4cccc(Cl)c4C)ccn23)c1` [Compound 73, 7-(3-chloro-2-methylphenyl)-3-(3-methylbenzylthio)-[1,2,4]triazolo[4,3-a]pyrazin-8(7H)-one], 439 nM. With `Cc1c(Cl)cccc1-n1ccn2c(SCc3ccccc3I)nnc2c1=O` [Compound 74, 7-(3-chloro-2-methylphenyl)-3-(2-iodobenzylthio)-[1,2,4]triazolo[4,3-a]pyrazin-8(7H)-one], the 50% inhibitory concentration (IC50) turned out to be 264 nM. Under `Cc1c(Cl)cccc1-n1ccn2c(SCc3c(Cl)cccc3Cl)nnc2c1=O` [Compound 75, 7-(3-chloro-2-methylphenyl)-3-(2,6-dichlorobenzylthio)-[1,2,4]triazolo[4,3-a]pyrazin-8(7H)-one] stands 280 nM; under `Cc1c(Cl)cccc1-n1ccn2c(SCc3cccc(I)c3)nnc2c1=O` [Compound 77, 7-(3-chloro-2-methylphenyl)-3-(3-iodobenzylthio)-[1,2,4]triazolo[4,3-a]pyrazin-8(7H)-one], 462 nM; under `Cc1c(Cl)cccc1-n1ccn2c(SCc3cc(Cl)cc(C(F)(F)F)c3)nnc2c1=O` [Compound 78, 7-(3-chloro-2-methylphenyl)-3-(3-chloro-5-(trifluoromethyl)benzylthio)-[1,2,4]triazolo[4,3-a]pyrazin-8(7H)-one], 597 nM. Consider `COc1cc(CSc2nnc3c(=O)n(-c4cccc(Cl)c4C)ccn23)cc(OC)c1` [Compound 79, 7-(3-chloro-2-methylphenyl)-3-(3,5-dimethoxybenzylthio)-[1,2,4]triazolo[4,3-a]pyrazin-8(7H)-one], for which the half-maximal inhibitory concentration (IC50) came to 1330 nM. On to `COc1c(Cl)cccc1-n1ccn2c(SCc3ccccc3)nnc2c1=O` [Compound 80, 3-(benzylthio)-7-(3-chloro-2-methoxyphenyl)-[1,2,4]triazolo[4,3-a]pyrazin-8(7H)-one], for which the IC50 stood at 533 nM. With `O=c1c2nnc(SCc3ccccc3)n2ccn1-c1ccccc1Cl` [Compound 81, 3-(benzylthio)-7-(2-chlorophenyl)-[1,2,4]triazolo[4,3-a]pyrazin-8(7H)-one], the IC50 worked out at 946 nM. Turning to `O=c1c2nnc(SCc3ccccc3)n2ccn1-c1cccc(Cl)c1F` [Compound 82, 3-(benzylthio)-7-(3-chloro-2-fluorophenyl)-[1,2,4]triazolo[4,3-a]pyrazin-8(7H)-one], the IC50 amounted to 374 nM. On to `Cc1c(Br)cccc1-n1ccn2c(SCc3cc(Cl)cc(Cl)c3)nnc2c1=O` [Compound 83, 7-(3-brorno-2-methylphenyl)-3-(3,5-dichlorobenzylthio)-[1,2,4]triazolo[4,3-a]pyrazin-8(7H)-one], for which the half-inhibitory concentration (IC50) was determined as 855 nM. As to `Cc1c(Cl)cccc1-n1ccn2c(SCc3cccc(OC(F)(F)F)c3)nnc2c1=O` [Compound 85, 7-(3-chloro-2-methylphenyI)-3-(3-(trifluoromethoxy)benzylthio)-[1,2,4]triazolo[4,3-a]pyrazin-8(7H)-one], the half-maximal inhibitory concentration (IC50) is 503 nM. For the compound `Cc1c(Cl)cccc1-n1ccn2c(SCc3cccc(Br)c3)nnc2c1=O` [Compound 86, 3-(3-bromobenzylthio)-7-(3-chloro-2-methylphenyl)-[1,2,4]triazolo[4,3-a]pyrazin-8(7H)-one], the concentration for half-maximal inhibition (IC50) was 446 nM. Under `Cc1c(Cl)cccc1-n1ccn2c(SCc3ccccc3C#N)nnc2c1=O` [Compound 87, 2((7-(3-chloro-2-methylphenyl)-8-oxo-7,8-dihydro-[1,2,4]triazolo[4,3-a]pyrazin-3-ylthio)methyl)benzonitrile] stands 434 nM; under `Cc1c(Cl)cccc1-n1ccn2c(SCc3cc(C(F)(F)F)cc(C(F)(F)F)c3)nnc2c1=O` [Compound 88, 3-(3,5-bis(trifluoromethyl)benzylthio)-7-(3-chloro-2-methylphenyl)-[1,2,4]triazolo[4,3-a]pyrazin-8(7H)-one], 8370 nM; under `Cc1c(Cl)cccc1-n1ccn2c(SCc3cccc(C(F)(F)F)c3)nnc2c1=O` [Compound 89, 7-(3-chloro-2-methylphenyl)-3-(3-(trifluoromethyl)benzylthio)-[1,2,4]triazolo[4,3-a]pyrazin-8(7H)-one], 581 nM. With `COC(=O)c1ccccc1CSc1nnc2c(=O)n(-c3cccc(Cl)c3C)ccn12` [Compound 90, methyl 2-((7-(3-chloro-2-methylphenyl)-8-oxo-7,8-dihydro-[1,2,4]triazolo[4,3-a]pyrazin-3-ylthio)methyl)benzoate], the half-inhibitory concentration (IC50) stood at 643 nM.

In the case of `COC(=O)c1cccc(CSc2nnc3c(=O)n(-c4cccc(Cl)c4C)ccn23)c1` [Compound 91, methyl 3-((7-(3-chloro-2-methylphenyl)-8-oxo-7,8-dihydro-[1,2,4]triazolo[4,3-a]pyrazin-3-ylthio)methyl)benzoate], the IC50 came to 3250 nM.

In the case of `Cc1cccc(-n2ccn3c(SCc4ccccc4)nnc3c2=O)c1C` [Compound 92, 3-(benzylthio)-7-(2,3-dimethylphenyl)-[1,2,4]triazolo[4,3-a]pyrazin-8(7H)-one], the IC50 stood at 209 nM.
